According to a melting point compilation (Tetko et al.; mined from patent text by program, amines drawn as free bases though some values may be those of a salt):

Structure (SMILES)	melting point [°C]
O=C(O)c1c(Br)ccc(OCc2ccccc2Cl)c1OCc1ccccc1Cl	156 to 158
CCOC(=O)C1Oc2ccc(Cl)cc2C(C)(c2ccccc2)O1 (stereo not drawn)	92
CCOC(=O)c1ccc(NCc2ccc3ccc4nc(C)[nH]c(=O)c4c3c2)cc1F	> 200
CC1CCC(C(C)C)C(OC(=O)CCC(=O)OC2CC(C)CCC2C(C)C)C1 (single isomer, unassigned; (-))	61 to 62
CNc1nc(N=[N+]=[N-])ncc1C#N	225 to 230
CCOC(=O)c1ccc(NCCOc2ccc(F)cc2)cc1	122 to 123
Cc1c([N+](=O)[O-])ccc2c1ccn2C	120 to 123
CN1C2CCC(NC(=O)c3n[nH]c4ccccc34)C1CC2 (stereo not drawn)	222 to 224
CCCCCCCCCCCCC(C(=O)O)C(O)(CC(=O)O)C(=O)O (stereo not drawn)	75.4 to 76.1
O=C(NCC1CCCO1)c1cccc(-c2ccc3c(c2)C(c2cc(Cl)ccc2Cl)CC3)c1 (stereo not drawn)	122
Cc1nc(N2CCOCC2)sc1C	122 to 123
Cc1nnc(-c2cnc3occ(-c4ccccc4Cl)c3c2)o1	141 to 142
COc1ccc(-c2[nH]c3cn[nH]c(=O)c3c2Cl)cc1OCC1CC1	256 to 258
CC(=O)Oc1ccc(C2CC(=O)OC(=O)C2)cc1	140 to 143
CC(=O)O[C@@](Cn1cncn1)(c1ccc(F)cc1F)[C@@H](C)S(=O)(=O)Cl	110 to 115
Cc1c(-c2cccc(OCc3ccccc3)c2)n(Cc2ccc(OCCN3CCCCC3)cc2)c2ccc(OCc3ccccc3)cc12	125 to 126
COP(=O)(CC(=O)COc1ccc(Cl)cn1)OC	37 to 40
CCCNC(=O)C1(CCCCNc2ccc(Br)nc2)c2ccccc2-c2ccccc21	67 to 69
COc1cc(C)ccc1S(=O)(=O)O	92 to 94
O=C(NCC12CCCN(CCC1)C2)c1c[nH]c2ccccc12	139 to 142
CCOC(=O)Nc1ncc(-c2nc3ccccc3c(=O)n2-c2ccc(OC)cc2)s1	222 to 224
Cc1cccc(Cn2c(NC3CCN(CCc4c(C)nc5ccccn5c4=O)CC3)nc3cccnc32)n1	233
CCOC(=O)C(=NNc1ccc([N+](=O)[O-])cc1)C(C)=O	128
CC(C)(C)n1ncc(OCc2ccc(OCc3ccc(F)cc3)nc2)c(Cl)c1=O	121 to 124
Cc1[nH]c(=O)c2ccccc2c1CC(=O)O	280 to 295

Structure (SMILES)	melting point [°C]
CC(=O)OCc1cc(O)c2c(c1)C(=O)c1cccc(C(C)=O)c1C2=O	190 to 191
CCn1ncc2c(Cl)c3cccc(OC)c3nc21	168 to 170
COC(=O)C(N)(CO)Cc1c[nH]c2ccccc12 (racemic)	148 to 149
COc1c(Cl)cc2c(Cl)nc(Cl)nc2c1OC	154 to 155
Cc1ccc(S(=O)(=O)N2CCCC2c2ccsc2)cc1 (racemic)	114
COc1ccc(C(=O)c2sc(Nc3ccccc3)nc2NC(=O)Nc2ccc(F)cc2)cc1	177 to 178
COc1ccc(N2CCOCC2)c2sc(-c3ncc(-c4sc5ccccc5c4C)[nH]3)nc12	213 to 215
Nc1cc(N)c(-c2ccc([N+](=O)[O-])cc2-c2cccc(Cl)c2Cl)cn1	237 to 239
Cc1ccccc1N1CCN(CC(O)COc2cccc3c2CCCC3=O)CC1 (stereo not drawn)	183 to 184
O=C1NCc2ccccc2C([N+](=O)[O-])N1 (stereo not drawn)	93 to 95
Cc1ccc2c3c1OC(c1ccccc1)N3C(=O)C1CCCN1C2=O (stereo not drawn)	158 to 162
Cc1cc(NC23N=CN=C2C=NC(N2CCC(C)CC2)=N3)[nH]n1 (stereo not drawn)	> 300
COc1ccc(C(CC(=O)O)c2ccc(OC)cc2)cc1	132 to 134
Oc1ccc2c(c1)C1CNCC(C2)C1 (stereo not drawn)	215 to 217
CCOC(=O)c1c(C(F)(F)F)nc(C(F)F)c(C(=O)OC)c1-n1cccn1	42 to 52
CN1C(=O)S/C(=C\c2cn(-c3ccccc3)nc2OCc2ccccc2)C1=O	226 to 227
CC1(C)NC(SCc2ccccc2N)=NC1=S	103 to 104
CC1(C)C(=O)C(C(=O)Cc2ccc(Cl)cc2)C(=O)C(C)(C)C1=O	57 to 61
CN(C)C(=O)Nc1ccc(OCC(=O)c2ccccc2)c(Cl)c1	148 to 150
COC(=O)N(CC(=O)O)C(=O)c1cccc2c(C(F)(F)F)c(OC)ccc12	148 to 150
N#Cc1[nH]c2ccc(C(=O)O)cc2c1-c1ccccc1	302 to 304
CC(C)(C)OC(=O)N=C(N)N(CCc1ccc(OCCC2Oc3ccccc3N(Cc3cccc(Cl)c3)C2=O)cc1)C(=O)OC(C)(C)C (stereo not drawn)	74 to 78
CCC1CC2C3CCC4=CC(=O)CCC4C3CCC2(C)C1OC(=O)CBr (stereo not drawn)	118 to 120
O=C(Nc1cccc(S(=O)(=O)NCc2cccnc2)c1)c1cnn2c(C(F)F)cc(-c3ccc(C(F)(F)F)cc3)nc12	256

Other lines, results leading:

melting point [°C]	Structure (SMILES)
69 to 70	CCC(O)(c1ccc(OCCN(C)C)cc1)c1cccc(C(F)(F)F)c1 (stereo not drawn)
115 to 132	CC(C)(C)c1cccc(C(C)(C)C)c1OP1OP(Oc2c(C(C)(C)C)cccc2C(C)(C)C)OP(Oc2c(C(C)(C)C)cccc2C(C)(C)C)O1 (stereo not drawn)
98 to 100	COC(=O)c1nc(OC)nc(OC)c1Cl
142 to 144	Cc1sc(Cc2ccccc2)c(-c2ccc(-c3ccc(OC(Cc4ccccc4)C(=O)O)cc3)cc2)c1C (stereo not drawn)
109 to 111	CC(C=CCO)Oc1ccc(Oc2cnc3cc(F)ccc3n2)cc1 (stereo not drawn)
190 to 192	CC(=O)[NH+]([O-])C[C@@H]1CN(c2ccc(N3CCN(S(=O)(=O)c4ccccc4C#N)CC3)c(F)c2)C(=O)O1 (stereo partly drawn)
179 to 181	CCOn1cnc2c(N)nc3ccccc3c21
230 to 232	COc1cccc(CNC(=O)c2nc3cccc(COCc4ccc(C(=O)O)cc4)c3c(=O)[nH]2)c1
167 to 168	CC1CC2C3CCC4=CC(=O)CCC4(C)C3=CCC2(C)C1(O)C(=O)CO (stereo not drawn)
142 to 145	CNC(=S)C1(c2cccnc2)CCCCC1NOCCO (stereo not drawn)
147 to 148	Cc1oc2c(OC(C)C(N)=NO)cccc2c1C (stereo not drawn)
165 to 166	Oc1ccc2c(c1)C=CC=CS2
118	COc1cc(Cl)ccc1C(Nc1ccc(F)c2nc(C)ncc12)C(O)(C=C(C)C)C(F)(F)F (stereo not drawn)
140 to 145	CCC1(CC)C(=O)NC(C)(C)C(C)(C)N1OC(C)(C)C#N
211 to 213	COC(C(N)=O)(C(N)=O)c1ccc(Cl)c(Cl)c1
78 to 81.5	O=C1c2ccccc2COc2ccc(CCO)cc21
191 to 193	O=C(O)C1=Cc2cc(Cl)cc(F)c2OC1C(F)(F)F (stereo not drawn)
150 to 153	CCOC(=O)c1cn(CCc2ccccc2)c2oc(CN3CCOCC3)cc2c1=O
142	O=C1C(O)=C(CC2CCCC(C(F)(F)F)C2)C(=O)c2ccccc21 (stereo not drawn)
227 to 229	O=c1[nH]c(=O)n2c(c1Cc1ccccc1)SCCC2
127 to 128	CC(=O)NCc1ccc2ccn(C3CCN(CCc4ccc(F)cc4)CC3)c2c1
107 to 108	O=[N+]([O-])c1cnc2cccnc2c1NCCOc1ccccc1
261	O=C(O)c1ccc2c(c1)C(=Cc1ccccc1)OC2=O
180 to 182	CC(C)c1c(O)ccc2c1oc1ccc(C#N)cc12
73 to 74	CCCCCCCCCCCCCCCCCC(=O)c1ccc(OC)c(C(=O)OC)c1

melting point [°C]	Structure (SMILES)
112 to 114	COC(=O)C(Cc1ccc([N+](=O)[O-])cc1)NC(=O)NCc1cccc(Oc2ccccc2)c1 (single isomer, unassigned; (+))
164 to 165	COc1ccc([C@@H]2CN(C)CC[C@@H]2NC(=O)c2ccccc2)cc1 (relative stereo)
182 to 184	COc1ccc(-c2cc3c(s2)c(=O)c(SC)cn3C)cc1
137 to 141	Clc1ccc2c(c1)Cc1ccccc1CN2
136 to 139	CCCCCCCCCCCCNC1=NS(=O)(=O)N=C1NCCSCc1ccc(CN(C)C)o1
104 to 106	CCOC(=O)c1cc(=O)cc(-c2ccccc2Cl)o1
163 to 164	CSCc1cn(C)c2cc(Cl)ccc2c1=O
277 to 279	O=C1CCC(N2Cc3c(OCc4ccc5ccccc5c4)cccc3C2=O)C(=O)N1 (stereo not drawn)
181 to 182	COc1cc(C2c3cc4c(cc3C(O)CC2C(=O)O)OCO4)cc(OC)c1OC (stereo not drawn)
189 to 190	Cc1[nH]c(-c2ccccc2)nc1C(C)O (stereo not drawn)
113 to 115	CC(c1ccccc1)N1CC(CF)(C(=O)N(Cc2ccccc2)Cc2ccccc2)CC1=O (stereo not drawn)
153 to 157	CS(=O)(=O)c1ccc(-n2ncc(C#N)c2-c2ccc(-c3ccco3)cc2)cc1F
131 to 133	CC(=O)c1cc(N2CCCC2)ccc1NC(=O)c1cccc(OCc2ccccc2)c1
178	CCCCNC(=O)C=C(C)C=CC=C(C)C=Cc1c(C)cc(OC)c(C)c1C
119 to 120	CC1=C(c2ccc(C(=O)N3Cc4cccn4Cc4ccccc43)cc2)CCCC1
106 to 108	CCCCOCCOc1ccc(-c2ccc(N3CCCCC3C)c(C=CC(=O)O)c2)cc1 (stereo not drawn)
70 to 73	O=S(=O)(NCCCCCCCCCCCCBr)c1ccc(Cl)cc1
130 to 132	CCCCN(Cc1ccc(-c2ccccc2-c2nnnn2C(c2ccccc2)(c2ccccc2)c2ccccc2)cc1)c1nc(C)ncc1C(=O)OCC
111 to 112	CC(C)(C)C(=O)c1ccc(CC(=O)O)cc1
222 to 224	O=C(O)c1ccc(-n2ccc3ccccc32)cc1
154 to 158	COc1ccc(S(=O)(=O)N(C(=O)c2snc(Cl)c2Cl)c2ccc(Cl)cc2)cc1
170 to 172	O=C1C=CC(O)(c2cc3ccccc3n2S(=O)(=O)c2ccccc2)C=C1
124 to 130	COc1cc2ncc(C#N)c(Nc3ccc(Sc4ccccc4)c(Cl)c3)c2cc1OC
55 to 60	CCCCCCCCCCCCCCCCCCOc1cccc(NCC(=O)OCc2ccccc2)c1
